These results are taken from patent US12630565B2, “DNA-dependent protein kinase inhibitor” (DIZAL (JIANGSU) PHARMACEUTICAL CO., LTD., priority 2019, dated 2026).

Data set [1] relates to MDCKII-MDR1-BCRP cell monolayers. Briefly: MDCKII-MDR1-BCRP efflux assay. The format is in vitro ADME. The following applies: 5 μM compound, 120 min, HBSS pH 7.4. An outline of the steps:
(§1)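 Bidirectional (A-B, B-A) transport of 5 μM compound across MDCKII-MDR1-BCRP monolayers in HBSS, 25 mM HEPES pH 7.4, ~37° C. for 120 min, triplicate; donor and receiver concentrations measured, monolayer integrity checked with Lucifer yellow. Papp and efflux ratio calculated.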

The target of data set [2] is Full length human DNAPK protein (Homo sapiens, UniProt P78527). Briefly: DNA-PK enzymatic assay (TR-FRET). The format is biochemical. Particulars: 10 μM ATP, 1.6 μM peptide substrate. On the technique in general: In TR-FRET formats the signal depends on donor and acceptor labels being close together.
Data set [3] in a line: Metabolic stability assay (human microsomal Clint). Particulars: 1 mg/mL microsomes, 1 mM NADPH, 37° C.; for Human liver microsomal CLint: 1 μM compound. Type of data set: in vitro ADME. An outline of the steps:
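Compound (1 μM) incubated at 37 °C with pooled human liver microsomes (1 mg/mL) and 1 mM NADPH in 100 mM phosphate, pH 7.4. Samples quenched in acetonitrile at 0–30 min and analysed by LC-MS/MS for parent loss. CLint reported in μl/min/mg.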
In general terms: Liver microsomes are vesicles of endoplasmic reticulum, rich in cytochrome P450 enzymes.

The test system of the next data set is Rat hepatocyte. Briefly: Metabolic stability assay (rat hepatocyte Clint). Particulars: 1 μM compound, cryopreserved hepatocytes 1 million cells per mL. The format is in vitro ADME. In a few lines: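 Compound at 1 μM incubated with cryopreserved rat hepatocytes, 1 million cells/mL, sampled 0–120 min with acetonitrile quench and LC-MS/MS quantitation. CLint (μL/min/E6) derived from elimination rate constant and half-life of parent disappearance, scaled by cell concentration.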

A further data set has as its system MDR1, BCRP. Briefly: MDCKII-MDR1-BCRP efflux assay. Particulars: dog, pH 7.4, 5 μM compound, HBSS pH 7.4, read-out: MDCK-Mdr1-BCRP efflux ratio. The format is in vitro ADME. In a few lines: as §1
Data set [4] is described as follows: Brain-blood-barrier penetration assay (short oral absorption model, Kp,uu). Type of data set: in vivo. The following applies: male, Han Wistar, rat, brain and plasma, po, 10 mg/kg, male Han Wistar rats, oral 10 mg/kg in 1% methylcellulose; AUC(brain)/AUC(plasma)×(fu,brain/fu.plasma). The method, then: It is believed that Kp,uu, the relationship between concentrations of unbound drug in brain and in plasma, is the key to prediction of CNS action and should be the main parameter measured and optimized for in drug discovery (Di L et al., Journal of Medicinal Chemistry [2013], 56: 2-12).
In vitro plasma and brain binding assay was carried out by using equilibrium dialysis method with semi-permeable membrane. Plasma and diluted brain homogenate (1:4 with DPBS pH7.4) were spiked with 5 μM test compound (in triplicate) and dialyzed against equal volume of 150 μL 100 mM PBS buffer (pH7.4) at 37° C. for 18 hours in a slowly rotated plate. At the end of incubation, a 50 μL aliquot from the receiver side and a 5 μL from the donor chamber were taken. The 5 μL sample was further diluted with 45 μL of blank plasma or brain homogenate. Paired samples were matrix-matched with either buffer or blank plasma/brain homogenate and mixed for 2 min, and then precipitated with 150 μL cold acetonitrile with 100 ng/mL tolbutamide as internal standard. After centrifuging at 4000 rpm for 20 min, supernatant was diluted with 0.1% formic acid aqueous solution and analyzed for LC/MS/MS (API 4000, Applied Biosystems, Foster City). Unbound fraction (fu) of test compound in the brain homogenate and diluted plasma were calculated by the ratio of the buffer side response to the brain homogenate/plasma side response, and unbound fraction (fu,pl and fu,br) of test compound in non-diluted plasma and tissue were calculated from measured fu in homogenate and plasma with the following equation: fu,bl (fu,br)=(1/D)/[(1/fu−1)+1/D)]. D is dilution factor.
A Short oral absorption (SOA) model is an in-vivo screening model to identify brain penetration of a compound. Six male Han Wistar rats purchased from Beijing Vital River were orally dosed with the compound at 10 mg/kg in 1% methylcellulose At 0.5, 1, 2, 4, 7 and 16 hour post-dose, cerebral spinal fluid (CSF) was collected from cisterna magna. Plasma samples will be processed for plasma by centrifugation at approximately 4° C., 3,000 g within half an hour of collection. Plasma samples will be removed to a labeled tube and stored at −80 degree until analysis. Brain tissue was harvested and homogenized in 3× volume of 100 mM phosphate buffered saline (pH7.4). All samples were stored at ˜−70° C. prior to LC/MS/MS analysis.
Standards were prepared by spiking blank plasma, brain homogenate and artificial CSF covering 0.5 to 500 ng/mL. Homogenized brain tissue along with plasma samples were precipitated by adding 3-fold volume of cold acetonitrile containing internal standard (40 ng/mL Dexamethasone and 40 ng/mL Diclofenac), and 10 μL of CSF samples were precipitated with 100 μL of cold acetonitrile containing internal standard. After 2 min vortex and 5 min centrifugation at 14,000 rpm, supernatant was analyzed by LC/MS/MS (API 4000, Applied Biosystems, Foster City). Two sets of standard curves were run at the beginning and end of each batch from plasma sample analysis. For brain and CSF samples, one standard curve was analyzed along with test samples.
Total brain levels, expressed as brain/plasma ratio (Kp) were measured by AUCbrain/AUCplasma in rodents after oral administration. Free fraction of test compound in biological matrix was determined by in vitro plasma and brain binding assay. Kp,uu was calculated by the following equation: Kp,uu=AUC (brain)/AUC (plasma)×(fu,brain/fu.plasma).

For orientation: IC50 means the concentration that inhibits the measured activity by half. The term microsomal CLint denotes a measure of how fast metabolising enzymes remove a compound, apart from limits set by blood flow.

Turning to `Cc1cc2ncnn2cc1Nc1ncc2c(C)nn(C3CCCOC3)c2n1` (single isomer, unassigned) [Example 30, 3-methyl-N-(7-methyl-[1,2,4]triazolo[1,5-a]pyridin-6-yl)-1-(tetrahydro-2H-pyran-3-yl)-1H-pyrazolo[3,4-d]pyrimidin-6-amine], the MDCK-Mdr1-BCRP efflux ratio in data set [1] is 1.2. This molecule also returned a half-maximal inhibitory concentration (IC50) in data set [2] of 15.7 nM. For the same molecule, in data set [3], the “Human liver microsomal CLint” value amounted to 17.7 µL/min/mg. In addition, the “Rat hepatocyte CLint (μl/min/10^−6 cells)” value (“Rat hepatocyte CLint” below) in the data set with Rat hepatocyte came out at 4.5 μl/min/10^−6 cells.

On to `Cc1cc2ncnn2cc1Nc1ncc2c(C)nn(C3CCOC(C)C3)c2n1` (single isomer, unassigned) [Example 36, 3-methyl-N-(7-methyl-[1,2,4]triazolo[1,5-a]pyridin-6-yl)-1-(2-methyltetrahydro-2H-pyran-4-yl)-1H-pyrazolo[3,4-d]pyrimidin-6-amine], for which, in data set [1], the MDCK-Mdr1-BCRP efflux ratio was 2.1. In data set [2], this molecule showed an IC50 of 1.4 nM. In addition, in data set [3], the “Human liver microsomal CLint” value is 51.5 µL/min/mg. For the same molecule, the “Rat hepatocyte CLint” value in the data set with Rat hepatocyte was found to be 11.6 μl/min/10^−6 cells.

`Cc1cc2ncnn2cc1Nc1ncc2c(C)nn(C3CCOC3)c2n1` (single isomer, unassigned) [Example 49, 3-methyl-N-(7-methyl-[1,2,4]triazolo[1,5-a]pyridin-6-yl)-1-(tetrahydrofuran-3-yl)-1H-pyrazolo[3,4-d]pyrimidin-6-amine]: the MDCK-Mdr1-BCRP efflux ratio in data set [1] is 3.4. Also, in data set [2], the IC50 worked out at 1.7 nM. In addition, in data set [3], the “Human liver microsomal CLint” value turned out to be 8.7 µL/min/mg. Besides, in the data set with Rat hepatocyte, the “Rat hepatocyte CLint” value is listed as below 1 μl/min/10^−6 cells.

As for `Cc1cc2ncnn2cc1Nc1ncc2c(C)nn(CC3CCCO3)c2n1` (single isomer, unassigned) [Example 51, 3-methyl-N-(7-methyl-[1,2,4]triazolo[1,5-a]pyridin-6-yl)-1-((tetrahydrofuran-2-yl)methyl)-1H-pyrazolo[3,4-d]pyrimidin-6-amine], the MDCK-Mdr1-BCRP efflux ratio in data set [1] was 1.9. The same molecule registered an IC50 in data set [2] of 12 nM. Moreover, the “Human liver microsomal CLint” value in data set [3] is 20.9 µL/min/mg. Moreover, in the data set with Rat hepatocyte, the “Rat hepatocyte CLint” value is reported as below 1 μl/min/10^−6 cells.

Consider `Cc1cc2ncnn2cc1Nc1ncc2c(C)nn(CC3CCOC3)c2n1` (single isomer, unassigned) [Example 53, 3-methyl-N-(7-methyl-[1,2,4]triazolo[1,5-a]pyridin-6-yl)-1-((tetrahydrofuran-3-yl)methyl)-1H-pyrazolo[3,4-d]pyrimidin-6-amine], for which the MDCK-Mdr1-BCRP efflux ratio in data set [1] came to 2.4. This molecule also yielded an IC50 in data set [2] of 7.2 nM. In addition, the “Human liver microsomal CLint” value in data set [3] was 15.2 µL/min/mg. In the data set on Rat hepatocyte, the “Rat hepatocyte CLint” value turned out to be 5.0 μl/min/10^−6 cells.

Consider `Cc1cc2ncnn2cc1Nc1ncc2c(C)nn(C3CC(C)OC(C)C3)c2n1` (single isomer, unassigned) [Example 86-1, 1-(2,6-dimethyltetrahydro-2H-pyran-4-yl)-3-methyl-N-(7-methyl-[1,2,4]triazolo[1,5-a]pyridin-6-yl)-1H-pyrazolo[3,4-d]pyrimidin-6-amine], for which the MDCK-Mdr1-BCRP efflux ratio in data set [1] was found to be 0.9. In data set [2], the half-maximal inhibitory concentration (IC50) turned out to be 3 nM. Also, the “Human liver microsomal CLint” value in data set [3] is above 300 µL/min/mg. Moreover, the “Rat hepatocyte CLint” value with Rat hepatocyte is 42.7 μl/min/10^−6 cells.

In the case of `COC1CCC(n2nc(C)c3cnc(Nc4cn5ncnc5cc4C)nc32)C1` (single isomer, unassigned) [Example 109, 1-(3-methoxycyclopentyl)-3-methyl-N-(7-methyl-[1,2,4]triazolo[1,5-a]pyridin-6-yl)-1H-pyrazolo[3,4-d]pyrimidin-6-amine], the MDCK-Mdr1-BCRP efflux ratio in data set [1] worked out at 2. In data set [2], the IC50 was determined as 4 nM. Also, the “Human liver microsomal CLint” value in data set [3] was 87.2 µL/min/mg. The “Rat hepatocyte CLint” value in the data set on Rat hepatocyte came to 11.9 μl/min/10^−6 cells.

For the molecule `Cc1cc2ncnn2cc1Nc1ncc2c(C)nn(C3CCOCC3C)c2n1` (single isomer, unassigned) [Example 113, 3-methyl-N-(7-methyl-[1,2,4]triazolo[1,5-a]pyridin-6-yl)-1-(3-methyltetrahydro-2H-pyran-4-yl)-1H-pyrazolo[3,4-d]pyrimidin-6-amine], the MDCK-Mdr1-BCRP efflux ratio in data set [1] is 4. In addition, inhibition in data set [2] was half-maximal at 3.2 nM (IC50). Also, the “Human liver microsomal CLint” value in data set [3] stood at 60.5 µL/min/mg. In the data set with Rat hepatocyte, the “Rat hepatocyte CLint” value stood at 8.2 μl/min/10^−6 cells.

With `Cc1cc2ncnn2cc1Nc1ncc2c(C)nn(C3CCOCC3C)c2n1` (single isomer, unassigned) [Example 114, 3-methyl-N-(7-methyl-[1,2,4]triazolo[1,5-a]pyridin-6-yl)-1-(3-methyltetrahydro-2H-pyran-4-yl)-1H-pyrazolo[3,4-d]pyrimidin-6-amine], the MDCK-Mdr1-BCRP efflux ratio in data set [1] is 2. The molecule also showed an IC50 in data set [2] of 1.7 nM. Besides, in data set [3], the “Human liver microsomal CLint” value came out at 50.4 µL/min/mg. For the same molecule, the “Rat hepatocyte CLint” value in the data set with Rat hepatocyte stood at 8.5 μl/min/10^−6 cells.

Take `Cc1cc2ncnn2cc1Nc1ncc2c(C)nn(C3CCOCC3C)c2n1` (single isomer, unassigned) [Example 115, 3-methyl-N-(7-methyl-[1,2,4]triazolo[1,5-a]pyridin-6-yl)-1-(3-methyltetrahydro-2H-pyran-4-yl)-1H-pyrazolo[3,4-d]pyrimidin-6-amine]: the MDCK-Mdr1-BCRP efflux ratio in data set [1] stood at 2. The molecule also displayed an IC50 in data set [2] of 1.9 nM. In addition, the “Human liver microsomal CLint” value in data set [3] stood at 53.5 µL/min/mg. The “Rat hepatocyte CLint” value in the data set with Rat hepatocyte is recorded as 7.7 μl/min/10^−6 cells.

Turning to `Cc1cc2ncnn2cc1Nc1ncc2c(C)nn(C3CCOC(C)(C)C3)c2n1` (single isomer, unassigned) [Example 117, 1-(2,2-dimethyltetrahydro-2H-pyran-4-yl)-3-methyl-N-(7-methyl-[1,2,4]triazolo[1,5-a]pyridin-6-yl)-1H-pyrazolo[3,4-d]pyrimidin-6-amine], in data set [1], the MDCK-Mdr1-BCRP efflux ratio is recorded as 1.8. Further, in data set [2], the IC50 worked out at 1.8 nM. The “Human liver microsomal CLint” value in data set [3] came out at 50.4 µL/min/mg. Moreover, in the data set with Rat hepatocyte, the “Rat hepatocyte CLint” value was found to be 9.1 μl/min/10^−6 cells.

As for `Cc1cc2ncnn2cc1Nc1ncc2c(n1)c(C1CCOCC1)nn2C` [Example 1, 1-methyl-N-(7-methyl-[1,2,4]triazolo[1,5-a]pyridin-6-yl)-3-(tetrahydro-2H-pyran-4-yl)-1H-pyrazolo[4,3-d]pyrimidin-5-amine], the efflux ratio at 120 min, 5 μM with MDR1, BCRP came to 5.9. For the same molecule, the Kp uu in data set [4] amounted to 0.17. Also, in data set [2], the IC50 came out at 0.8 nM. This molecule registered a microsomal CLint at 1 μM in data set [3] (human, pooled human liver microsomes, pH 7.4, 1 μM compound) of 19.8 µL/min/mg. Moreover, the “Rat hepatocyte CLint” value with Rat hepatocyte was found to be 5.4 μl/min/10^−6 cells.
